Reference: patent publication US11787835B2, “C19 scaffolds and steroids and methods of use and manufacture thereof” (Trustees of Dartmouth College, priority 2018, dated 2023)

Assays:
[1] = test system: DU-145 prostate cancer cells (endogenous ERβ); experiment: Alkaline phosphatase activity in DU-145 prostate cancer cells; format: cell-based, human; settings: DU-145 cells, 24 hours, 5 μM, FIG. 2
Method: FIG. 2 is a bar graph showing alkaline phosphatase activity in human DU-145 prostate cancer cells (17β-estradiol, Compound 100, and Compound 101 were evaluated at 5 μM).
The DU-145 prostate cancer cell line only expresses ERβ and can be used as a model to examine the activation of ERβ in the absence of any potential confounding signal driven by ERα. Alkaline phosphatase (ALP) expression is induced in an ER-dependent manner and has been used to characterize the activity of synthetic ER agonists and antagonists.
In order to examine the ability of Compound 100 and Compound 101 to activate ERβ in the context of a cell line expressing endogenous ERβ, DU-145 cells were treated for 24 hours with either 17β-estradiol, Compound 100, or Compound 101 and ALP activity derived from the cells was examined.

[2] = test system: U251 and U87 cells; experiment: Growth inhibition and viable cell counts of glioblastoma cell lines; format: cell-based, human; settings: for inhibition of glioma cell growth (IC50), fold lower concentration compared to TMZ: after 24 hours, FIG. 3A
Method: FIG. 3A-3B are line graphs depicting (A) dose dependent growth inhibition of U251 and U87 cells treated with Compound 100, Compound 101, TMZ, and vehicle control DMSO (n=4) and (B) viable cell counts of U251 and U87 cells treated with Compound 100, Compound 101, TMZ, and vehicle control DMSO determined every 24 hours for 96 hours (n=4)
(§1) To determine the biological effect of Compound 100 and Compound 101, human glioblastoma-derived cell lines U251 and U87 were treated with varying concentrations of Compound 100, Compound 101, temazolomide (TMZ; a standard of care chemotherapeutic agent), or vehicle-toxicity control, dimethylsulfoxide (DMSO) used at final volumes that were identical to those used to attain all concentrations tested of Compound 100 and Compound 101.

[3] = test system: U251 and U87 cells; experiment: Annexin V/7-AAD apoptosis FACS analysis; format: cell-based, human; settings: 24 hours, Annexin V and 7-AAD, FIG. 3C
Method: FIG. 3C is a flow cytometric analysis of U251 and U87 co-stained with Annexin V-FITC/7-AAD after treatment with Compound 100, Compound 101, TMZ, and vehicle control DMSO (n=4).
(§2) In order to elucidate the mechanism of this cell death, glioblastoma cells treated for 24 hours with Compound 100, Compound 101, TMZ, or DMSO control were analyzed for early and late apoptosis markers (Annexin V and 7-Aminoactinomycin D) by FACS analyses. […] Additionally, over a period of five days, morphological changes in U251 and U87 cells treated with Compound 100 and Compound 101 were tracked using the Incucyte live cell imaging system.

[4] = target: ERβ (Homo sapiens, UniProt Q92731); experiment: ERβ agonist assay (functional activity at estrogen receptors); format: cell-based
Chain of ERβ (Q92731 whole entry, species assumed): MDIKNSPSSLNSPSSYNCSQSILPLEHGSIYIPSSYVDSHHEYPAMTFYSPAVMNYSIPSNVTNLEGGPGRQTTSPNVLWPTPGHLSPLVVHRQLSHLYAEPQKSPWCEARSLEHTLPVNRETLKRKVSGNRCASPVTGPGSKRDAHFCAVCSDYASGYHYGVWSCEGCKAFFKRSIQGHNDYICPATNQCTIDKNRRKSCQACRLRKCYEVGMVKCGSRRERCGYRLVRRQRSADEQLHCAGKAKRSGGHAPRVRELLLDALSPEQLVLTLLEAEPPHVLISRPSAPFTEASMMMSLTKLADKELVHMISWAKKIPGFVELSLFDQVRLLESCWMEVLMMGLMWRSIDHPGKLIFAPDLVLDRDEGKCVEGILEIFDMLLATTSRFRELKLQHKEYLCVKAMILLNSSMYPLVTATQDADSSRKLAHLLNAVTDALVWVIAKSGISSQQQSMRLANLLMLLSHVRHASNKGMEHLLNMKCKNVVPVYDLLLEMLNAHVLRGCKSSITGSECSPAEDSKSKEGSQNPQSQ
Method: FIG. 1 is a set of line graphs showing the results of ERβ and ERα agonist assays for Compounds 100 and 101.
Compounds 100 and 101 were evaluated for their functional activity at estrogen receptors (both ERα and ERβ). 17β-estradiol was used as a control, as it is appreciated to be a potent agonist of both ERα and ERβ.

[5] = test system: primary glioma tumor cells from patients; experiment: Growth of primary glioma tumor cells from patients; format: cell-based, human
Description: The present disclosure also relates to the use of such compounds as biologically active (e.g., therapeutic) components in, for example, pharmaceutical compositions and/or directly as human and/or animal therapeutics and medicines. In certain embodiments, the compounds are ERβ selective agonists and/or may be used to treat or prevent conditions, disorders, or diseases such as cancer (e.g., breast cancer, prostate cancer, ovarian cancer, acute myeloid leukemia, and glioma, among others) or neurodegeneration. Currently there is no widely applicable cure for primary brain tumors.

[6] = test system: established tumors; experiment: In vivo growth of established tumors; settings: initial studies
Description: In comparison to 17β-estradiol, Compound 100 and Compound 101 have a unique profile for selective agonism of ERβ (FIG. 1).

[7] = test system: U251 and U87 cells; experiment: Incucyte live cell imaging of morphological changes; format: cell-based, human; settings: over five days, FIG. 3D
Method: FIG. 3D depicts phase-contrast images using Incucyte for live cell tracking of U251 and U87 cells in response to treatment with Compound 100, Compound 101, TMZ, and vehicle control DMSO. Live cells were tracked and imaged for 96 hours (data not shown). Scale bar=300 μm. All data in FIG. 3A-3D are representative of four independent experiments and four replicates of each treatment condition were analyzed per experiment.
as §2

[8] = test system: glioblastoma cell lines; experiment: MTT cell viability assay in glioblastoma cell lines; format: cell-based, human
Method: as §1

| Compound | induction of ALP activity [1] | inhibition of glioma cell growth (IC50), fold lower concentration compared to TMZ [2] | induction of apoptosis, fold higher than TMZ or DMSO controls [3] | type of ERβ agonism [4] | growth of primary glioma tumor cells from patients [5] | growth of established tumors in vivo [6] | morphological changes (adherence, cellular integrity) [7] | viability and proliferation of glioblastoma lines ([2]; assessed every 24 hours for 5 days, compared to TMZ or DMSO, FIG. 3B) | growth of glioblastoma cell lines (MTT) [8] |
| --- | --- | --- | --- | --- | --- | --- | --- | --- | --- |
| C[C@]12CC[C@@H]3c4ccc(O)cc4CC[C@H]3[C@@H]1CC[C@@H]2O [17β-estradiol, reference compound] | effective in inducing ALP activity | – | – | – | – | – | – | – | – |
| C[C@@]12CC[C@]3(C)C(=C1C[C@H](O)C2)CCc1cc(O)ccc13 [Compound 101, (9R,13S,16R)-9,13-dimethyl-7,9,11,12,13,15,16,17-octahydro-6H-cyclopenta[a]phenanthrene-3,16-diol] | – | 50 fold | 7 fold | – | – | – | – | – | – |
| C[C@]12CC[C@@]3(C)C(=C1C[C@@H](O)C2)CCc1cc(O)ccc13 [Compound 100, (9S,13R,16S)-9,13-dimethyl-7,9,11,12,13,15,16,17-octahydro-6H-cyclopenta[α]phenanthrene-3,16-diol] | effective at inducing ALP to levels comparable to 17β-estradiol | 50 fold | 7 fold | full agonist | inhibit growth | reduces the growth of established tumors | Increased loss of adherence and cellular integrity | reduced viability and the resulting proliferation of glioblastoma lines in a dose dependent manner | significantly reduced the growth of glioblastoma cell lines in a dose-dependent manner |
